Measurements published in patent US12628750B2, “Plant cell chromosome doubling by application of electromagnetic field” (SYNGENTA CROP PROTECTION AG, priority 2020, dated 2026).
Values joined by “and” are separate entries in the source; they are usually repeats but may differ in a detail not shown here. Equal entries are not always repeated.

Legend:
[1] = test system: transgenic tobacco (Nicotiana tabacum) BY-2 cell line; assay: Cell viability by trypan blue staining in synchronized BY-2 cells; type: cell-based
Excerpt: (§1) The transgenic tobacco (Nicotiana tabacum) BY-2 cell line was obtained from RIKEN BioResource Research Center (epd.brd.riken.jp/en/). This cell line expresses green fluorescent protein (“GFP”) fused to tobacco α-tubulin. See F. Kumagai, et al., Fate of nascent microtubules organized at the M/G1 interface, as visualized by synchronized tobacco BY02 cells stably expressing GFP-tubulin: Time-sequence observations of the reorganization of cortical microtubules in living plant cells, PLANT & CELL PHYS. 42:723-732 (2001). When viewed with a fluorescence microscope, the microtubules fluoresce and enable visualization of microtubule polymerization, including, e.g., spindle fiber and phragmoplast formation during cell division. The BY-GT16 cells were grown in modified LS media supplemented with 0.2 mg/L of 2,4-D. The cells were maintained in the dark at 27° C. on a rotary shaker at 130 rpm, with sub-culturing at 7-day intervals.
To aid visualization and increase the likelihood of observing a plurality of cells undergoing mitosis after S-phase, the BY-GT16 cells were synchronized. To do so, […] of 7-day old suspension culture was transferred into 14 mL of BY-2 media (recipes below in Example 4). To the new suspension, 14 μL aphidicolin (5 mg/mL) was added, and the suspension was incubated in the dark for 24 hours at 25° C. on a rotary shaker at 130 rpm. After incubation, the aphidicolin was removed by washing ten times with 16 mL of sterile BY-2 medium. At the end of the last wash, the cells were resuspended in 16 mL of fresh BY-2 medium and returned the washed suspension to the incubator. BY-2 cells reach maximum mitotic index after approximately eight hours. Generally, peak numbers of cells with phragmoplasts were observed approximately eleven hours after washing. Thus, the plurality of cells was reasonably synchronized.
After washing the aphidicolin from the cells, the cells were permitted to restart normal cellular processes for six hours (i.e., the cells were “released”). Next, the population of synchronized cells were prepared for placement in an EMF apparatus (FIG. 1). At that point, 775 μL of cell culture was placed into a 4 mm electroporation cuvette, which was held in place in the cavity of the apparatus using a plastic frame. The plastic frame was designed to fit inside a cavity of the apparatus and was created by 3D-printing. The frame was designed to be placed inside the cavity such that the electrodes (210 and 220) from the Amplifier (200) are able to stably contact the rigid surfaces of the metal plates (Terminals 310 and 320) defining the Cavity (300), which in this instance was configured to hold the cuvette (FIG. 1). The Function Generator (100) was connected to the amplifier and was used to control the frequency (kHz) and field intensity (effective V/cm in the cuvette) of the applied EMF. An optional Oscilloscope (400) was also attached to the positive electrode (210) at the point of contact with the metal plate (310) of the Cavity (FIG. 2). The oscilloscope monitored the sinusoidal variation of the EMF applied to the cells in the cuvette as a function of time.
For the time period between Hours 7 and 11 after mitotic release of the cells, the EMF was applied to the cells in the cuvette (for a total duration of four hours). After application, the Function Generator (100) was turned off and the cells were removed for viability staining and phragmoplast observation. The remaining cells were fixed in paraformaldehyde for later observation.
To determine at what frequency or range of frequencies the BY-2 mitotic structures would be susceptible to the effects of the EMF, frequency tests were conducted in pairs with controls. The controls included a “No Treatment” control where no EMF was applied over the course of several sessions (see “Date of Experiment” column). Since EMF is generated via application of an AC voltage, in some tests, the controls included the application of a corresponding DC voltage. […]

BMS cell culture = assay: Nuclear ploidy analysis (Sysmex Ploidy Analyzer) of BMS cell suspension culture after treatment; type: cell-based
Protocol: A BMS cell culture was obtained and maintained in liquid MS media supplemented with 2 mg/L of 2,4-D as described in Green and Phillips (1975). Five to seven days after subculture, the liquid cell culture was placed in a […] gap electroporation cuvette and exposed to EMF application at a frequency of 275 kHz, intensity of 25 V/cm, for a duration of 18 hours with constant shaking at room temperature to disrupt spindle fiber formation and interfere with mitosis. For each treatment, three other tests were also setup from the same culture: (i) 1.25 mM colchicine-treatment, (ii) no treatment culture in an electroporation cuvette, and (iii) no treatment culture that remained in the incubator flask. This duration allows for DNA replication without cell division, thereby causing chromosome doubling.
To measure doubling immediately after treatment, cell culture was prepared for nuclear ploidy analysis first by protoplasting cells for 3 hours in plant protoplast digest/wash buffer (Sigma-Aldrich® D9692) containing 1% cellulase R-10 (GoldBio™ C8001.0001) and 0.1% macerozyme R-10 (GoldBio™ M8002.0001) at 25 C with shaking at 120 rpm. After protoplasting, cells were pelleted by centrifugation at 14000 rpm for 1 min in a tabletop microcentrifuge and protoplast buffer was removed with a pipette. The cells were then resuspended by pipetting in 400 μl of nuclei extraction buffer (Sysmex®, CyStain® UV Precise P Nuclei Extraction Buffer, 05-5002) and mixed with 800 μl of nuclei staining solution (Sysmex®, CyStain® UV Precise P Staining Buffer, 05-5002). The stained nuclei were then passed through a 30 μm filter (Sysmex®, Non-sterile CellTrics® Filter, Green, 04-0042-2316) into the collection cuvette, and the filter rinsed with an additional 800 μl of nuclei staining solution. The cuvette was then loaded into a Sysmex® Ploidy Analyzer (CyFlow® Ploidy Analyzer, equipped with UV LED 365 nm laser) and data obtained for the entirety of the sample. Untreated BMS cell culture typically has 2-3 ploidy peaks, consistent with the majority of cells existing in a stable ploidy state (peak 1), and a minority of cells being in the process of mitosis and containing double the standard ploidy state (peak 2). […] The increase in the proportion of cells represented in the higher level peaks (3 and 4) was associated with a decrease in cells in the lower level peaks (1 and 2), providing direct evidence that field treatment doubled the genomes of cells moving them from peaks 1 and 2 into the category of peaks 3 and 4 (Table 4). To determine whether this change in the relative proportions of cell culture ploidy levels was statistically significant, eight experimental replicates were averaged and the values compared with pairwise T-tests (Table 5 and Table 6).

[2] = test system: transgenic tobacco (Nicotiana tabacum) BY-2 cell line; assay: Phragmoplast count by confocal microscopy in synchronized GFP-tubulin BY-2 cells; type: cell-based; conditions: 1.25 mM colchicine; n=3; * p≤0.05 vs No EMF
Excerpt: as §1
To aid visualization and increase the likelihood of observing a plurality of cells undergoing mitosis after S-phase, the BY-GT16 cells were synchronized. […]
After washing the aphidicolin from the cells, the cells were permitted to restart normal cellular processes for six hours (i.e., the cells were “released”). […] The oscilloscope monitored the sinusoidal variation of the EMF applied to the cells in the cuvette as a function of time. […]

[3] = test system: haploid, diploid and interspecific hybrid embryos and seedlings; conditions: cited from earlier work
[4] = 1.25 mM colchicine, trypan blue
[5] = 1.25 mM colchicine, 18 hours, single replicates

**Q.** Which “Loss of viability compared to EMF treated cells” value ([1]; 1.25 mM colchicine vs 250 and 275 kHz EMF) does the source give for COc1cc2c(c(OC)c1OC)-c1ccc(OC)c(=O)cc1[C@@H](NC(C)=O)CC2 [Colchicine, colchicine] here?
**A.** higher loss of viability

**Q.** What about the “Average Viability (Normalized)” value ([1]; 1.25 mM colchicine, n=3) of the same compound?
**A.** 101%

**Q.** What about the “Viability (Normalized to Control)” value ([1]; 1.25 mM colchicine, normalized to no treatment control) of the same compound?
**A.** 112.4% and 94.1% and 95.4%

**Q.** And the “Dead Cells (Per 3 vertical columns)” value [1, 4]?
**A.** 87 and 112 and 120

**Q.** What about the “Live Cells (Per 3 vertical columns)” value [1, 4] of the same compound?
**A.** 732 and 740 and 766

**Q.** What about the “Viability (% Live)” value [1, 4] of the same compound?
**A.** 89.4% and 86.9% and 86.5%

**Q.** What about the “Proportion of Cells in Each Ploidy Peak (%): Peak 1” value (BMS cell culture; [5]) of the same compound?
**A.** 38.88% and 11.65% and 11.29% and 27.74% and 26.54% and 19.87% and 35.15% and 33.87%

**Q.** What about the “Proportion of Cells in Each Ploidy Peak (%): Peak 2” value (BMS cell culture; [5]) of the same compound?
**A.** 57.77% and 59.12% and 74.64% and 57.21% and 57.50% and 58.10% and 54.88% and 53.99%

**Q.** And the “Proportion of Cells in Each Ploidy Peak (%): Peak 3” value (BMS cell culture; [5])?
**A.** 3.35% and 26.77% and 13.43% and 13.56% and 15.34% and 20.30% and 8.73% and 11.35%

**Q.** And the “Proportion of Cells in Each Ploidy Peak (%): Peak 4” value (BMS cell culture; [5])?
**A.** 0.00% and 2.46% and 0.64% and 1.49% and 0.62% and 1.72% and 1.23% and 0.79%

**Q.** And the “Avg Peak1%” value (BMS cell culture; average of 8 replicates)?
**A.** 25.62%

**Q.** And the “Avg Peak2%” value (BMS cell culture; average of 8 replicates)?
**A.** 59.15%

**Q.** And the “Avg Peak3%” value (BMS cell culture; average of 8 replicates)?
**A.** 14.10%

**Q.** And the “Avg Peak4%” value (BMS cell culture; average of 8 replicates)?
**A.** 1.12%

**Q.** What about the “Cells of higher genome content compared to untreated controls (flask or cuvette)” value (BMS cell culture; pairwise T-tests, 8 replicates) of the same compound?
**A.** significantly more cells of higher genome content

**Q.** What about the “Average Phragmoplasts (Normalized)” value [2] of the same compound?
**A.** 1.0*

**Q.** What about the “survival rate after chromosome doubling with colchicine” value [3] of the same compound?
**A.** less than 100%

**Q.** What about the “fertility after chromosome doubling with colchicine” value ([3]; usually) of the same compound?
**A.** less than 50%
